Read-outs that look alike come from different tables or passages of the source.
Assays:
[1] = tested on: HIV-1 with WT (wild type) RT in P4 cells; assay: Anti-HIV assay on P4 cell line, WT RT; assay type: cell-based
Description: (§1) For the antiviral and the cytotoxicity assays, the drugs were diluted in complete DMEM medium. In these experiments, drugs were diluted in triplicate wells in a 96-well plate in six, 5 fold serial dilutions.
(§2) Two days later, co-cultivation with SupT1 cells (a human T-cell lymphoma cell line) was initiated to facilitate rapid production of progeny virions. Production of virus was measured by using the Innotest HIV Antigen mAb p24 kit (Innogenetics). At the peak of production cultures were harvested and filtered. The virus stocks were stored at −80° C. until used.
Anti-HIV activity and cytotoxicity of the compounds were tested on a P4 cell line. […] The P4 cells were cultured in complete DMEM medium supplemented with 10% fetal bovine serum (FBS), 0.5% of Penicillin/Streptomycin and G418 at 0.5 mg/ml. Exponentially growing cells were trypsinized, centrifuged and split twice weekly at 5.10^4 cells/ml.
The P4 cells are HIV-infectible Hela-CD4 cells that carry the bacterial lacZ gene under the control of the HIV-1 long terminal repeat (LTR). In this cell line, transcription of the LacZ gene is driven by the HIV-1 LTR. […] In other words, in this system, the expression level of the β-galactosidase gene is proportional to the viral replication.
(§3) Briefly, in the anti-HIV assay 100 Ål of P4 cells were plated in 96-well plate at a concentration of 0.4 10^5 cells/ml and incubated at 37° C., 5% CO2. After 48 h, the medium was removed and 100 Ål of the different drugs dilutions were added to the cells. Four hours after the addition of the drugs all cells were infected with equal amount of cell-free virus, corresponding to 100 ng of HIV p24 antigen. After 48 h of incubation at 37° C., 5% CO2, β-galactosidase activity was measured using chlorophenol red-β-D-galactopyranoside assays.
Each assay was performed a minimum of three times. The 50% effective concentration (Ec50) was calculated from each dose response curve using the CurveExpert 1.3 software.

P4 cells = assay: Cytotoxicity (CC50), MTT assay on P4 cells; assay type: cell-based; details: 3 days
Description: as §1
(§4) The 50% cytotoxic concentration (CCso) was determined using a protocol adapted from Pauwels et al. (1988. J. Virol. Methods 20(4):309-21). Briefly, flat bottom 96-well plates were filled with 50 μl of complete medium containing 5.10^3 P4 cells. 2 hours later 50 μl of drug solution were added to the cells. Drugs (dissolved in DMEM, see above) were diluted in six, 5-fold serial dilutions from stock solutions in triplicate wells of a 96-well plate. Cells and compounds were incubated at 37° C. in growth medium for 3 days. Cell viability was determined by MTT assays using the Roche Cell Proliferation KIT. The absorbance (λ=570 nm) was measured on a Benchmark™ Microplate Reader (Biorad) and compared with 12 cell control replicates (no drug added). Each assay was performed at least three times for a total of at least nine replicate wells. This method detects both cytostatic and cytolytic effects of drugs.

[2] = molecular target: T1, HIV-1 reverse transcriptase (Human immunodeficiency virus type 1 group M subtype B, UniProt P04585); assay: HIV-1 in vitro reverse transcriptase activity (fixed-time RNA dependent DNA polymerase assay); assay type: biochemical; details: residual RT activity, compound at 10 μM; RT activity without compound set at 100%
T1 construct: fixed-time assay for HIV-1 reverse transcriptase RNA dependent DNA polymerase activity; RT was purchased from Calbiochem; purchased Calbiochem CAL382129-500
Description: For the in vitro inhibition studies of the HIV-1 reverse transcriptase activity, stock solutions of the compounds of the present invention were prepared in dimethyl sulfoxide at a final concentration of 10 mM and kept at room temperature. Nevirapine was purchased from Boehringer Ingelheim. Efavirenz was received from the NIH AIDS Research and Reference Reagent Program.
In vitro inhibition studies used a fixed-time assay for HIV-1 reverse transcriptase RNA dependent DNA polymerase activity. RT was purchased from Calbiochem (ref CAL382129-500). One unit of RT corresponds to the amount of enzyme which incorporates one nanomole of [^3H]TTP in 10 minutes at 37° C.
Assays were performed in a final volume of 50 μl. […] Reaction mixtures were incubated at 37° C. for 10 min. The incorporation rate was determined by a standard trichloroacetic acid precipitation procedure (adapted from Current protocols in molecular biology. Eds Wiley, MGH Harvard medical school) and liquid scintillation counting using a Wallac scintillation counter.
The in vitro activity of the compounds, at a final concentration of 10 μM, on the reverse transcriptase (RT) activity of HIV-1 is derivable from the relative (%) reduction in RT activity. Hereby, the RT activity in the absence of any of the compounds is set at 100%.

[3] = Cytotoxicity (CC50), MTT assay on P4 cells; assay type: cell-based; details: human
Description: as §1, §4

[4] = tested on: HIV-1 mutant Cys188RT in P4 cells; assay: Anti-HIV assay on P4 cells, Cys188RT mutant; assay type: cell-based
From the text: (§5) In order to introduce mutation(s) at the level of the pol gene coding for the RT in the pNL4-3 plasmid containing the complete viral genome (Adachi et al., 1986. J. Virol., Vol. 59 p 284-291) we used the “Quick change mutagenesis kit” (Stratagene). The following mutations were separately introduced in pNL4-3: L100I, K103N, V108I, Y181C, Y188C, and the double mutations K103N/V108I. These mutations were chosen because of the resistance that they confer to existing NNRTI. The production procedure of the mutant viral stocks is identical to the one described above.
Anti-HIV activity and cytotoxicity of the compounds were tested on a P4 cell line. The P4 cell line (Clavel & Charneau, 1994. J. Virol., Vol. 68 p 1179-1185) was provided by Dr. François Clavel (Unité de recherche antivirale de l'hôpital Xavier Bichat Paris: Inserm). The P4 cells were cultured in complete DMEM medium supplemented with 10% fetal bovine serum (FBS), 0.5% of Penicillin/Streptomycin and G418 at 0.5 mg/ml. Exponentially growing cells were trypsinized, centrifuged and split twice weekly at 5.10^4 cells/ml.
The P4 cells are HIV-infectible Hela-CD4 cells that carry the bacterial lacZ gene under the control of the HIV-1 long terminal repeat (LTR). In this cell line, transcription of the LacZ gene is driven by the HIV-1 LTR. As such, the cytoplasmic accumulation of β-galactosidase is strictly dependent on the presence of the HIV transactivator Tat produced during the intracellular viral replication (Clavel & Charneau, 1994. J. Virol., Vol. 68, p. 1179-1185). In other words, in this system, the expression level of the β-galactosidase gene is proportional to the viral replication.
as §3
The absorbance was measured on a Benchmark™ Microplate Reader (Biorad) (λ=570 nm) and compared with 12 cell control replicates (no virus or drug added) and 12 virus control wells (no drug added). Each assay was performed a minimum of three times. The 50% effective concentration (Ec50) was calculated from each dose response curve using the CurveExpert 1.3 software. As Nevirapine activity corresponds to its published values (10-100 nM), the data are consistent with other measures of viral replication.

[5] = tested on: HIV-1 with WT (wild type) RT in TZM-bl cells; assay: Anti-HIV assay on TZM-bl cell line, WT RT; assay type: cell-based
Description: as §2, with “Wurzburg Jurkat T cells (subclone JR) were transfected with 10 μg of the circularly permuted infectious molecular clone HIVNL4-3 (Adachi et al., 1986. J. Virol, 59 (2), p 284-291). Two” for “Two”
(§6) Anti-HIV activity and cytotoxicity of the compounds were tested on the TZM-b1 cell line. The TZM-b1 cell line (Wei et al. 2002. Antimicrob. Agents Chemother. Vol. 46, p 1896-1905) was received from the NIH AIDS Research and Reference Reagent Program. These cells were cultured in complete DMEM medium supplemented with 10% fetal bovine serum (FBS), and 1% Penicillin/Streptomycin. Exponentially growing cells were trypsinized, centrifuged and split twice weekly at 5 10^4 cells/ml.
(§7) The anti-HIV assay with TZM-b1 cells is essentially the same as described above with P4 cells. The main difference between the two cell lines is that the TZM-b1 cells express at their surface both the CD4 and CCR5 proteins, acting as receptor and co-receptor for HIV entry, respectively (Wei et al. 2002. Antimicrob. Agents Chemother. Vol. 46, p 1896-1905). This feature makes the cells very sensitive to infection by the virus. The TMZ-b1 cells were infected with equal amount of cell-free virus, corresponding to 10 ng of HIV p24 antigen. This amount is ten times lower than the amount used to infect the P4 cells.

[6] = tested on: HIV-1 mutant Cys188RT in TZM-bl cells; assay: Anti-HIV assay on TZM-bl cells, Cys188RT mutant; assay type: cell-based; details: TZM-bl, mutant Cys188RT; read-out: EC50 Cys188RT TZM-bl
From the text: as §5, §6, §7

[7] = tested on: HIV-1 mutant Cys181RT in TZM-bl cells; assay: Anti-HIV assay on TZM-bl cells, Cys181RT mutant; assay type: cell-based; details: TZM-bl, mutant Cys181RT; read-out: EC50 Cys181RT TZM-bl
From the text: as §5, §6, §7

[8] = tested on: HIV-1 mutant Asn103/Ile108RT in TZM-bl cells; assay: Anti-HIV assay on TZM-bl cells, Asn103/Ile108RT double mutant; assay type: cell-based; details: TZM-bl, double mutant Asn103/Ile108RT; read-out: EC50 Asn103/Ile108RT TZM-bl
From the text: as §5, §6, §7

[9] = P4 cell line, WT RT, read-out: EC50 WT
[10] = Table 8, effect of the R2 substituent, cell line not given, read-out: EC50 WT
[11] = Table 8, effect of the R2 substituent, cell line not given, read-out: EC50 Cys188RT
[12] = Human immunodeficiency virus 1, P4 cell line, WT RT, read-out: EC50 WT

CCOC(=O)c1c(OC2CC(C)CC(C)C2)c(CC)c(C)[nH]c1=O (single isomer, unassigned) [Z37A]
EC50 [1, 9]: 0.24 µM
CC50 (P4 cells): 63 µM
Relative (%) RT activity in vitro (compound added at 10 μM) [2]: 7.6%

CCOC(=O)c1c(OC(=O)C=C(C)C)c(CC)c(C)[nH]c1=O [M18, ethyl 5-ethyl-6-methyl-4-[(3-methylbut-2-enoyl)oxy]-2-oxo-1,2-dihydropyridine-3-carboxylate]
EC50 ([1]; Human immunodeficiency virus 1, read-out: EC50 WT): 5.82 µM
SI (selectivity index = CC50/EC50) ([1]; P4 cell line, WT RT): >17
melting point: 166 °C
CC50 at 3 days [3]: > 100 µM
Relative (%) RT activity in vitro (compound added at 10 μM) [2]: 70.8%

CCOC(=O)c1c(OC2CCCCC2Cl)c(CC)c(C)[nH]c1=O (centres unmarked) [Z12]
EC50 [1, 9]: 3.09 µM
CC50 (P4 cells): > 100 µM
Relative (%) RT activity in vitro (compound added at 10 μM) [2]: 63.7%

CCOC(=O)c1c(OC2CCCCCC2)c(CC)c(C)[nH]c1=O [Z25]
EC50 [1, 9]: 0.48 µM
EC50 [1, 10]: 0.48 µM
CC50 (P4 cells): 81 µM
activity on Cys188 mutant strains compared with the cyclohexyl derivative [4]: more active on Cys188 mutant strains than the cyclohexyl derivative
EC50 [4, 11]: 3.28 µM
Relative (%) RT activity in vitro (compound added at 10 μM) [2]: 34.6%

CCOC(=O)c1c(OC2CCCC(C)C2)c(CC)c(C)[nH]c1=O (centres unmarked) [Z30]
EC50 [1, 9]: 0.52 µM
CC50 (P4 cells): > 100 µM
Relative (%) RT activity in vitro (compound added at 10 μM) [2]: 22.0%

CCc1c(C)[nH]c(=O)c(CO)c1OC1CCCCCC1 [Z32, 4-(cycloheptyloxy)-3-(hydroxymethyl)-5-ethyl-6-methylpyridin-2(1H)-one]
EC50 [1, 12]: 1.16 µM
SI (selectivity index = CC50/EC50) ([1]; P4 cell line, WT RT): 47
melting point: 146 °C
CC50 at 3 days [3]: 55 µM
Relative (%) RT activity in vitro (compound added at 10 μM) [2]: 44.0%

CCc1c(C)[nH]c(=O)c(COC(=O)CCl)c1OC1CCCCCC1 [Z33, [4-(cycloheptyloxy)-5-ethyl-6-methyl-2-oxo-1,2-dihydropyridin-3-yl]methyl chloroacetate]
EC50 [1, 12]: 1.03 µM
SI (selectivity index = CC50/EC50) ([1]; P4 cell line, WT RT): 52
melting point: 123 °C
CC50 at 3 days [3]: 54 µM
Relative (%) RT activity in vitro (compound added at 10 μM) [2]: 42.0%

CCOC(=O)c1c(OC2CC(C)CC(C)C2)c(CC)c(C)[nH]c1=O (centres unmarked) [Z37, ethyl 4-[(3,5-dimethylcyclohexyl)oxy]-5-ethyl-6-methyl-pyridine-2(1H)-one-3-carboxylate]
EC50 [1, 12]: 0.043 µM
SI (selectivity index = CC50/EC50) ([1]; P4 cell line, WT RT): 1349
melting point: 108 °C
CC50 at 3 days [3]: 58 µM
activity on Cys188 mutant strains compared with the cyclohexyl derivative [4]: more active on Cys188 mutant strains than the cyclohexyl derivative
EC50 ([4]; Human immunodeficiency virus 1, read-out: EC50 Cys188RT): 0.006 µM
Relative (%) RT activity in vitro (compound added at 10 μM) [2]: 8.3%

CCc1c(C)[nH]c(=O)c(C(=O)OCCN(CC)CC)c1OC1CC(C)CC(C)C1 (centres unmarked) [Z53]
Relative (%) RT activity in vitro (compound added at 10 μM) [2]: 34.3%

CCOC(=O)c1c(OC2CCCCCCC2)c(CC)c(C)[nH]c1=O [Z54]
EC50 [1, 9]: 1.35 µM
CC50 (P4 cells): 58 µM
Relative (%) RT activity in vitro (compound added at 10 μM) [2]: 24%

CCOC(=O)c1c(OC2CCC(CC)CC2)c(CC)c(C)[nH]c1=O (centres unmarked) [Z55]
Relative (%) RT activity in vitro (compound added at 10 μM) [2]: 40.3%

CCc1c(C)[nH]c(=O)c(N)c1OC1CC(C)CC(C)C1 (centres unmarked) [Z96inv]
Relative (%) RT activity in vitro (compound added at 10 μM) [2]: 25.4%

CCc1c(C)[nH]c(=O)c(CC)c1OC1CC(C)CC(C)C1 (centres unmarked) [Z167]
EC50 [5]: < 0.001 µM
EC50 [6]: < 0.001 µM
EC50 [7]: 0.007 µM
EC50 [8]: 0.129 µM

CCOC(=O)c1c(OC2CCCC2)c(CC)c(C)[nH]c1=O [reference compound]
EC50 [1, 10]: 1.91 µM

CCOC(=O)c1c(OC2CCCCC2)c(CC)c(C)[nH]c1=O [reference compound]
EC50 [1, 10]: 0.77 µM
EC50 [4, 11]: 6.5 µM

— patent US20070275953A1 (priority 2003, published 2007)
